Results as given in a compilation of properties of binary mixtures (doi:10.1016/j.molliq.2019.110987).

Assay: xn = mol fraction of the nth substance listed
Conditions: 100 kPa

CN(C)C=O + CCCC[P+](C)(CCCC)CCCC.COS(=O)(=O)[O-]
x2 = 0
Conditions | speed of sound [m/s] | viscosity [mPa·s]
293.15 K | 1484.1 | 0.867
298.15 K | 1468.9 | 0.813
303.15 K | 1447.2 | 0.764
313.15 K | 1410.2 | 0.684
318.15 K | 1391.2 | 0.663

CCCC[P+](C)(CCCC)CCCC.COS(=O)(=O)[O-] + CN(C)C=O
Conditions | speed of sound [m/s] | viscosity [mPa·s]
293.15 K, x1 = 0.0474 | 1486.7 | 1.774
293.15 K, x1 = 0.0765 | 1492.6 | 2.681
293.15 K, x1 = 0.1106 | 1502.8 | 3.495
293.15 K, x1 = 0.1508 | 1513.1 | 5.02
293.15 K, x1 = 0.1991 | 1518.1 | 6.59
293.15 K, x1 = 0.2582 | 1529.5 | 12.72
293.15 K, x1 = 0.5542 | 1551.2 | 145.3
293.15 K, x1 = 0.6717 | 1554.1 | 246
293.15 K, x1 = 0.7768 | 1557.2 | 368
293.15 K, x1 = 0.8253 | 1559.8 | 439
293.15 K, x1 = 0.8837 | 1560.2 | 532
293.15 K, x1 = 1 | 1563.7 | 729
298.15 K, x1 = 0.0474 | 1472.5 | 1.934
298.15 K, x1 = 0.0765 | 1482.5 | 3.021
298.15 K, x1 = 0.1106 | 1491.5 | 4.201
298.15 K, x1 = 0.1508 | 1499.4 | 5.71
298.15 K, x1 = 0.1991 | 1506.2 | 9.12
298.15 K, x1 = 0.2582 | 1511.1 | 17.12
298.15 K, x1 = 0.3321 | 1523.3 | 24.22
298.15 K, x1 = 0.4272 | 1529.1 | 41
298.15 K, x1 = 0.5542 | 1535.5 | 80.9
298.15 K, x1 = 0.6717 | 1538.1 | 164.4
298.15 K, x1 = 0.7768 | 1540.5 | 267
298.15 K, x1 = 0.8253 | 1542.3 | 315
298.15 K, x1 = 0.8837 | 1544 | 389
298.15 K, x1 = 0.9362 | 1545 | 445
303.15 K, x1 = 0.0474 | 1453.5 | 1.154
303.15 K, x1 = 0.1106 | 1471.3 | 3.824
303.15 K, x1 = 0.1508 | 1479.2 | 4.91
303.15 K, x1 = 0.1991 | 1487.8 | 5.73
303.15 K, x1 = 0.2582 | 1497.1 | 11.88
303.15 K, x1 = 0.3321 | 1503.3 | 15.34
303.15 K, x1 = 0.4272 | 1510.1 | 31.14
303.15 K, x1 = 0.5542 | 1519.2 | 44.8
303.15 K, x1 = 0.6717 | 1520.1 | 115.1
303.15 K, x1 = 0.7768 | 1523.5 | 192.4
303.15 K, x1 = 0.8253 | 1525.4 | 233
303.15 K, x1 = 0.9362 | 1528.2 | 325
303.15 K, x1 = 1 | 1529.6 | 381
308.15 K, x1 = 0.0474 | 1434.9 | 2.009
308.15 K, x1 = 0.0765 | 1444.1 | 2.042
308.15 K, x1 = 0.1106 | 1452.2 | 3.858
308.15 K, x1 = 0.1508 | 1461.5 | 4.52
308.15 K, x1 = 0.1991 | 1470.1 | 5.96
308.15 K, x1 = 0.2582 | 1479.6 | 10.08
308.15 K, x1 = 0.3321 | 1485.8 | 13.81
308.15 K, x1 = 0.4272 | 1495.1 | 26.52
308.15 K, x1 = 0.5542 | 1501.1 | 37.9
308.15 K, x1 = 0.7768 | 1507 | 140.5
308.15 K, x1 = 0.8253 | 1509.1 | 170.5
308.15 K, x1 = 0.8837 | 1510.8 | 201
308.15 K, x1 = 0.9362 | 1513.8 | 242
308.15 K, x1 = 1 | 1514.3 | 286
313.15 K, x1 = 0.0765 | 1426.1 | 2.915
313.15 K, x1 = 0.1106 | 1433.2 | 3.012
313.15 K, x1 = 0.1508 | 1444.1 | 4.451
313.15 K, x1 = 0.1991 | 1452.6 | 5.02
313.15 K, x1 = 0.2582 | 1460.2 | 8.85
313.15 K, x1 = 0.3321 | 1469.2 | 13.52
313.15 K, x1 = 0.4272 | 1479.1 | –
313.15 K, x1 = 0.5542 | 1487.8 | 32.59
313.15 K, x1 = 0.6717 | 1489.8 | 66.5
313.15 K, x1 = 0.7768 | 1491.1 | 107.4
313.15 K, x1 = 0.8253 | 1494.8 | 127.5
313.15 K, x1 = 0.8837 | 1496.5 | 152.2
313.15 K, x1 = 0.9362 | 1497.5 | 182.7
318.15 K, x1 = 0.0474 | 1399.2 | 0.955
318.15 K, x1 = 0.0765 | 1409.7 | 1.855
318.15 K, x1 = 0.1106 | 1416.3 | 2.982
318.15 K, x1 = 0.1508 | 1425.5 | 4.147
318.15 K, x1 = 0.1991 | 1434.9 | 6.04
318.15 K, x1 = 0.4272 | 1463.7 | 20.74
318.15 K, x1 = 0.5542 | 1471.8 | 28.42
318.15 K, x1 = 0.6717 | 1475.1 | –
318.15 K, x1 = 0.7768 | 1478.2 | 81.3
318.15 K, x1 = 0.8253 | 1480.1 | 106.5
318.15 K, x1 = 0.8837 | 1482.6 | 127.4
318.15 K, x1 = 0.9362 | 1484.1 | 149.6
318.15 K, x1 = 1 | 1485.7 | 169.1
323.15 K, x1 = 0.0474 | 1382.2 | 1.897
323.15 K, x1 = 0.0765 | 1392.5 | 2.214
323.15 K, x1 = 0.1106 | 1398.2 | 2.469
323.15 K, x1 = 0.1991 | 1417.7 | 4.5
323.15 K, x1 = 0.2582 | 1425.1 | 9.48
323.15 K, x1 = 0.3321 | 1436.2 | 14.54
323.15 K, x1 = 0.4272 | 1445.5 | 19.56
323.15 K, x1 = 0.5542 | 1456 | 25.19
323.15 K, x1 = 0.6717 | 1461.6 | 43.1
323.15 K, x1 = 0.7768 | 1464.9 | –
323.15 K, x1 = 0.8253 | 1466.6 | 100.4
323.15 K, x1 = 0.9362 | 1471.7 | 123
323.15 K, x1 = 1 | 1472 | 133.4
